Measured values published in PubChem BioAssay AID690 (Sanford-Burnham Center for Chemical Genomics, 2007).
pIC50: −log10 of the molar value. Activity calls are given as the source filed them. How the calls were made is not given here.

biological target: Alkaline phosphatase, placental type (Homo sapiens) (UniProt P05187); assay: inhibition of human placental alkaline phosphatase – biochemical, luminescence, HTS (AID 690); conditions: purified PLAP, luminescent substrate
Sequence (P05187 whole entry, looked up): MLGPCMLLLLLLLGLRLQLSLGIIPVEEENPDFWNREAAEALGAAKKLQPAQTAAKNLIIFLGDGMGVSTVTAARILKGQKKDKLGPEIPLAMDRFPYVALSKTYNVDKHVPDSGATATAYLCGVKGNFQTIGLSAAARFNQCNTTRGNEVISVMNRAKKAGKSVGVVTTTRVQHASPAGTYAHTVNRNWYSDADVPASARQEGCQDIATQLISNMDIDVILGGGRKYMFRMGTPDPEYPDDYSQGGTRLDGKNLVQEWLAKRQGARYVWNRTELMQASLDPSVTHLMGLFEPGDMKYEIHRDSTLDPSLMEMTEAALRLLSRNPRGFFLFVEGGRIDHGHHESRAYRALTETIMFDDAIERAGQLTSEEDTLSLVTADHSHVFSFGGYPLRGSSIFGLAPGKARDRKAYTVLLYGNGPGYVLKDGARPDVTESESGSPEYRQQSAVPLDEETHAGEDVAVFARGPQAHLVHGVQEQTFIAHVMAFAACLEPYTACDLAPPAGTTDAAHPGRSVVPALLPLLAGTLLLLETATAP

Structure (SMILES)	pIC50	IC50
CC1=NN(Cc2ccccc2)C(=O)/C1=C\c1ccc(N(C)C)cc1	4.74	–
COC(=O)c1ccc2c(c1)C(C)(C)C(/C=C/c1ccccc1O)=[N+]2C	4.82	–
O=C1Nc2ccc(Br)cc2/C1=N/N=C/C1=C(N2CCOCC2)C(=C\c2ccccc2)/CC1	4.34	–
Clc1ccc(/C=C/c2nc3ccccc3[nH]2)c(Cl)c1	5.20	–
CCCCOc1ccc(CSC(=N)N)cc1[N+](=O)[O-]	4.11	–
CC1CCCC/C1=N/Nc1ccc([N+](=O)[O-])cc1[N+](=O)[O-] (stereo not given)	5.14	–
CCn1c(SCC(=O)c2ccc(O)c(O)c2)nnc1-c1ccccc1OC	5.36	–
C/C(=N\Nc1ccc([N+](=O)[O-])cc1)c1cccc(N)c1	4.28	–
COc1cc(/C=C2\N=C3CCCCCN3C2=O)ccc1O	4.59	–
Oc1ccc(CC2CC3CCN2CC3)cc1O (stereo not given)	4.44	–
COC(=O)C(N)Cc1ccc(O)c(O)c1 (stereo not given)	4.99	–
N#Cc1c(SCC(=O)OCc2ccccc2)nsc1SCC(=O)OCc1ccccc1	4.20	–
O=C1NC(=S)N/C1=C/c1cc([N+](=O)[O-])ccc1O	–	inactive
O/N=C/c1cc(Cl)ccc1OCc1cccc2ccccc12	4.37	–
O=c1oc2cc(Cl)ccc2n1CSc1nc2ccccc2s1	4.07	–
O=C1C2C3C=CC(C3)C2C(=O)N1c1n[nH]c(-c2ccccc2)n1 (stereo not given)	5.12	–
CC(C)N=c1scc(-c2ccco2)n1/N=C/c1ccc(O)c(O)c1	5.30	–
CN(C)c1ccc(/C=C/C=C2/SC(=S)N(c3ccccc3)C2=O)cc1	5.01	–
c1ccc(CSCCc2ccncc2)cc1	5.70	–
COC(=O)C1=C(O)/C(=C\c2ccc(O)c(OC)c2)N=C1C	4.54	–
CCOC(=O)c1c(-n2c(C)cc(C=C3C(=O)NC(=S)NC3=O)c2C)sc2c1CCCC2	4.19	–
CCOc1ccccc1OCc1nn2c(-c3ccc(C)cc3)nnc2s1	4.25	–
CN1c2ccccc2C(C)(C)[C@]12C=Cc1cc(O)ccc1O2	4.36	–
C=CCN1C(=O)NC2(O)C(=O)c3ccccc3C12O (stereo not given)	4.80	–
COCc1[nH]nc2c1C(c1cc(OC)c(O)c(OC)c1)C(C#N)=C(N)O2 (stereo not given)	4.64	–
O=c1sc2ccccc2n1COc1ccc(Cl)cc1	4.00	–
O=C(Nc1cc(N2CCOCC2)ncn1)NC1(C(F)(F)F)Oc2ccc(Cl)cc2O1 (stereo not given)	4.90	–

Structure (SMILES)	pIC50	IC50
C=CCn1c(SCC(=O)c2ccc(O)c(O)c2)nnc1-c1ccccc1OC	5.81	–
CC(C)C1N=C2c3ccccc3N=C(SCC(=O)c3ccc(O)c(O)c3)N2C1=O (stereo not given)	5.51	–
COc1cccc(OCCNc2cc(Cl)ccc2[N+](=O)[O-])c1	4.22	–
CC(=O)Oc1cc2oc(=O)cc(C)c2cc1OC(C)=O	5.20	–
Clc1ccc(CSc2nnnn2-c2ccc3c(c2)OCO3)c(Cl)c1	4.13	–
N#C/C(=C\c1ccc(O)c(O)c1)S(=O)(=O)c1ccccc1	5.39	–
O=C(NC1(C(F)(F)F)Oc2ccc(Cl)cc2O1)N1CCC2(CC1)OCCO2 (stereo not given)	5.31	–
CCN1/C(=C\C=C\C2=[N+](CC)c3ccccc3C2(C)C)C(C)(C)c2ccccc21	4.66	–
COC(=O)c1ccc2c(c1)C(C)(C)C(/C=C/c1ccc(O)cc1)=[N+]2C	4.97	–
O=C1C2CC=CCC2C(=O)N1c1n[nH]c(-c2ccccc2)n1 (stereo not given)	5.06	–
O=C1C2C3C=CC(C3)C2C(=O)N1c1n[nH]c(-c2cccnc2)n1 (stereo not given)	4.53	–
COc1cccc(-c2nnc3n2N=C(c2cccc(Br)c2)CS3)c1	4.12	–
CCn1c(SCC(=O)c2ccc(O)c(O)c2)nnc1-c1ccccc1	5.37	–
COC(=O)c1cn[nH]c1NC(=S)Nc1ccccc1C	4.71	–
c1ccc(-n2ncc3c2ncn2cnnc32)cc1	5.68	–
COCCNC(=O)NC1(C(F)(F)F)Oc2ccc(Cl)cc2O1 (stereo not given)	4.91	–
CCN1/C(=C/c2ccc3ccccc3[n+]2CC)C=Cc2ccccc21	4.97	–
Clc1ccc(CSCCc2ccncc2)cc1	5.24	–
CCn1c(CSc2nc3ccccc3s2)nnc1SCC(=O)c1ccc(O)c(O)c1	5.82	–
CCN1/C(=C/c2ccc3cccc(C)c3[n+]2CC)Sc2ccccc21	4.92	–
CN1C(=O)/C(=C2/C=Cc3ccccc3N2CCCS(=O)(=O)O)SC1=S	4.82	–
CN(C)c1ccc(/C=C/c2cc[n+](C)cc2)cc1	4.76	–
CNc1nnc(-c2cc3ccccc3oc2=O)s1	5.55	–
O=C(C[n+]1ccc(C(=O)N/N=C/c2ccc(Br)cc2)cc1)c1ccccc1	4.46	–
Cc1cc(C)nc(NN2C(=O)/C(=C/c3ccc(O)cc3)SC2=S)n1	4.73	–
CN(C)CCNc1ncnc2ccccc12	4.15	–
O=P(O)(O)c1ccccc1OCc1ccccc1	5.07	–

Structure (SMILES)	pIC50	IC50
c1ccc(Nc2cccc(Nc3ccccc3)n2)cc1	4.18	–
CCc1ccc(NSc2ccccc2[N+](=O)[O-])cc1	4.53	–
O=C(CSc1nc2ccccc2c(=O)[nH]1)c1ccc(O)c(O)c1	5.02	–
O=C(NCc1cccnc1)NC1(C(F)(F)F)Oc2ccc(Cl)cc2O1 (stereo not given)	4.91	–
COc1ccc(-n2nnnc2SCC(=O)c2ccc(O)c(O)c2)cc1	5.95	–
O=C(CSc1n[nH]c(-c2ccccc2)n1)c1ccc(O)c(O)c1	4.95	–
Cc1nn(-c2ccccc2)c(C)c1/C=N/NC(=O)c1cc(-c2ccccc2)n[nH]1	5.13	–
Cc1cc([N+](=O)[O-])ccc1NCc1ccc2ccccc2c1	4.12	–
CC1(C)Cc2c(sc3nc4n(c(=N)c23)CCCCC4)CO1	5.73	–
Cc1cc2nc(C3CCN(Cc4nnnn4Cc4cccs4)CC3)[nH]c2cc1C	5.12	–
Oc1ccc(C2=Nn3c(nnc3-c3ccco3)SC2)cc1O	4.67	–
Cc1ccc(C)c(NC(=S)NC(NC(=O)Cc2cccc3ccccc23)C(Cl)(Cl)Cl)c1 (stereo not given)	4.56	–
CN1/C(=C\C=C2\N=C(c3ccc(F)cc3)OC2=O)C(C)(C)c2ccccc21	4.45	–
COc1cc(/C=C2/CCC/C(=C\c3cc(O)c(OC)c(Cl)c3)C2=O)cc(Cl)c1O	4.55	–
CCOC(=O)SC1=N/C(=C\c2ccc(N(C)C)cc2)C(=O)S1	4.32	–
O=C(CCCn1c(SCC(=O)c2ccc(O)c(O)c2)nc2ccccc2c1=O)NCC1CCCO1 (stereo not given)	5.46	–
CN(C)c1ccc(/C=C/C(=O)c2cccc(Br)c2)cc1	4.45	–
CN1C(=O)/C(=C\c2ccc(N3CCCCC3)o2)C(=O)NC1=S	5.00	–
CSc1cccc(NC(=O)/C=C/c2ccccc2)c1	4.12	–
CCC1CCc2c(c3ccccc3[nH]c2=O)O1 (stereo not given)	4.85	–
Cc1[nH]c2ccccc2c1/C=C/c1cc[n+](C)cc1	4.54	–
COc1ccc(-c2nnc(-c3ccc(Br)o3)o2)cc1OC	4.99	–
CCOc1cc(/C=C(/C#N)C(=O)Nc2ccc(O)cc2)cc(Br)c1O	4.31	–
COc1cc(/C=C(/C(=O)c2cccs2)c2nc3ccccc3[nH]2)cc(OC)c1O	4.69	–
CCCc1[nH]nc2c1C(c1ccc(O)c(OC)c1)C(C#N)=C(N)O2 (stereo not given)	4.93	–
CCCCOC(=O)C(C)Nc1n[nH]c(=S)[nH]c1=O (stereo not given)	4.36	–
